The values below come from patent US6727264B1 (Synaptic Pharmaceutical Corporation, priority 2001, dated 2004).

The target in this assay is rat MCH-1 (Rattus norvegicus, UniProt P97639). Description: Radioligand binding assay at cloned rat MCH1 receptor ([3H] Compound A). Also noted: host or cells: Peak rapid 293 (Peakr293) cells, transient calcium phosphate transfection, membranes. As to conditions: cloned rat MCH1 receptor; 0.08 nM [3H] Compound A; Peakr293 cell membranes; read-out: Ki (nM) rMCH1.
rat MCH-1, sequence (P97639 whole entry): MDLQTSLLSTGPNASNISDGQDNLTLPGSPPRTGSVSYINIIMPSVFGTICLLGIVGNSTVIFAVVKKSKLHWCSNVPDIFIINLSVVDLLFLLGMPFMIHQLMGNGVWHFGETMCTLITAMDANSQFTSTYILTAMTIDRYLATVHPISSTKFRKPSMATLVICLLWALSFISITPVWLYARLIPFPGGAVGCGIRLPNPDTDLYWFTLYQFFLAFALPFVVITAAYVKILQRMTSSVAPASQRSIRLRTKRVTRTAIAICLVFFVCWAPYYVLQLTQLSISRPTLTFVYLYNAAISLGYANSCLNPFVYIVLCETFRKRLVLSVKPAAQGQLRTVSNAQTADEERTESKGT
Turning to `CC(C)C(=O)Nc1cccc(C2CCN(CCCc3c(-c4ccc(C(F)(F)F)cc4)n(-c4ccccc4)c4ccccc34)CC2)c1` [Example 685], the Ki stood at 82.4 nM.
Turning to `CC(C)C(=O)Nc1cccc(C2CCN(CCCc3c(-c4ccc(C(F)(F)F)cc4)[nH]c4c3ccc3ccccc34)CC2)c1` [Example 686, 2-METHYL-N-{3-[1-(3-(2-[4-(TRIFLUOROMETHYL)PHENYL]-1H-BENZO [G]INDOL-3-YL}PROPYL)-4-PIPERIDINYL]PHENYL}PROPANAMIDE], the Ki is 33.9 nM.
Regarding `Cc1cccc2c(CCCN3CCC(c4cccc(NC(=O)C(C)C)c4)CC3)c(-c3ccc(C(F)(F)F)cc3)[nH]c12` [Example 687], the Ki was found to be 20.6 nM.
For `Cc1ccc2[nH]c(-c3ccc(C(F)(F)F)cc3)c(CCCN3CCC(c4cccc(NC(=O)C(C)C)c4)CC3)c2c1` [Example 688], the Ki was 41 nM.
Regarding `COc1ccc2[nH]c(-c3ccc(C(F)(F)F)cc3)c(CCCN3CCC(c4cccc(NC(=O)C(C)C)c4)CC3)c2c1` [Example 689], the Ki is 11.3 nM.
The same measure for `Cc1cccc2c(CCCN3CCC(c4cccc(NC(=O)C(C)C)c4)CC3)c(-c3cccc(F)c3)[nH]c12` [Example 690]: 5.2 nM; for `CC(C)C(=O)Nc1cccc(C2CCN(CCCc3c(-c4ccc(Cl)cc4)n(C)c4ccccc34)CC2)c1` [Example 691]: 16.3 nM; for `COc1ccc2[nH]c(-c3ccc(F)cc3)c(CCCN3CCC(c4cccc(NC(=O)C(C)C)c4)CC3)c2c1` [Example 692]: 2 nM.
Regarding `CC(C)C(=O)Nc1cccc(C2CCN(CCCc3c(-c4ccccc4F)[nH]c4ccccc34)CC2)c1` [Example 693], the Ki turned out to be 0.4 nM.
The same measure for `CC(C)C(=O)Nc1cccc(C2CCN(CCCc3c(-c4cccc(F)c4)[nH]c4ccc(OC(F)(F)F)cc34)CC2)c1` [Example 694]: 6.4 nM.
For the molecule `CC(C)C(=O)Nc1cccc(C2CCN(CCCc3c(-c4ccccc4F)[nH]c4ccc(OC(F)(F)F)cc34)CC2)c1` [Example 695], the Ki was determined as 2.1 nM.
As for `CC(C)C(=O)Nc1cccc(C2CCN(CCCc3c(-c4ccc(F)cc4)n(-c4ccccc4)c4ccccc34)CC2)c1` [Example 696], the Ki worked out at 48.3 nM.
Turning to `CC(C)C(=O)Nc1cccc(C2CCN(CCCc3c(-c4ccccc4F)[nH]c4c3ccc3ccccc34)CC2)c1` [Example 697], the Ki amounted to 3 nM.
The figure for `Cc1ccc2[nH]c(-c3ccccc3F)c(CCCN3CCC(c4cccc(NC(=O)C(C)C)c4)CC3)c2c1` [Example 698] is 3 nM; for `CC(C)C(=O)Nc1cccc(C2CCN(CCCc3c(-c4cccc(F)c4)[nH]c4c3ccc3ccccc34)CC2)c1` [Example 699] it is 5.4 nM.
In the case of `CC(C)C(=O)Nc1cccc(C2CCN(CCCc3c(-c4ccc(F)cc4)n(C)c4ccccc34)CC2)c1` [Example 700], the Ki is 2 nM.
The same measure for `COc1ccc2[nH]c(-c3cccc(F)c3)c(CCCN3CCC(c4cccc(NC(=O)C(C)C)c4)CC3)c2c1` [Example 701]: 2.5 nM; for `CC(C)C(=O)Nc1cccc(C2CCN(CCCc3c(-c4cccc(F)c4)n(-c4ccccc4)c4ccccc34)CC2)c1` [Example 702]: 27 nM; for `CC(C)C(=O)Nc1cccc(C2CCN(CCCc3c(-c4ccc(Cl)cc4)[nH]c4ccc(OC(F)(F)F)cc34)CC2)c1` [Example 703]: 16.6 nM.
The figure for `CC(C)C(=O)Nc1cccc(C2CCN(CCCc3c(-c4cccc(F)c4)[nH]c4ccccc34)CC2)c1` [Example 704] is 1.2 nM; for `CC(C)C(=O)Nc1cccc(C2CCN(CCCc3c(-c4cccc(F)c4)n(C)c4ccccc34)CC2)c1` [Example 705] it is 8.5 nM.
The same measure for `Cc1ccc2[nH]c(-c3cccc(F)c3)c(CCCN3CCC(c4cccc(NC(=O)C(C)C)c4)CC3)c2c1` [Example 706]: 4.2 nM; for `CC(C)C(=O)Nc1cccc(C2CCN(CCCc3c(-c4ccc(Cl)cc4)[nH]c4c3ccc3ccccc34)CC2)c1` [Example 707]: 19.6 nM.
Consider `CC(C)C(=O)Nc1cccc(C2CCN(CCCc3c(-c4ccc(Cl)cc4)[nH]c4ccccc34)CC2)c1` [Example 708], for which the Ki came out at 3.8 nM.
As to `CC(C)C(=O)Nc1cccc(C2CCN(CCCc3c(-c4ccccc4F)n(C)c4ccccc34)CC2)c1` [Example 709], the Ki worked out at 1.3 nM.
The figure for `Cc1cccc2c(CCCN3CCC(c4cccc(NC(=O)C(C)C)c4)CC3)c(-c3ccccc3F)[nH]c12` [Example 710] is 6.9 nM; for `CC(C)C(=O)Nc1cccc(C2CCN(CCCc3c(-c4ccccc4F)n(-c4ccccc4)c4ccccc34)CC2)c1` [Example 711] it is 90.5 nM.
The figure for `COc1ccc2[nH]c(-c3ccccc3F)c(CCCN3CCC(c4cccc(NC(=O)C(C)C)c4)CC3)c2c1` [Example 712] is 8.6 nM; for `COc1ccc2[nH]c(-c3ccc(Cl)cc3)c(CCCN3CCC(c4cccc(NC(=O)C(C)C)c4)CC3)c2c1` [Example 713] it is 7.7 nM; for `CC(C)C(=O)Nc1cccc(C2CCN(CCCc3c(-c4ccc(F)cc4)[nH]c4c3ccc3ccccc34)CC2)c1` [Example 714] it is 4.7 nM.
The figure for `CC(C)C(=O)Nc1cccc(C2CCN(CCCc3c(-c4ccc(F)cc4)[nH]c4ccc(OC(F)(F)F)cc34)CC2)c1` [Example 715] is 4.2 nM; for `Cc1cccc2c(CCCN3CCC(c4cccc(NC(=O)C(C)C)c4)CC3)c(-c3ccc(F)cc3)[nH]c12` [Example 716] it is 4.5 nM; for `CC(C)C(=O)Nc1cccc(C2CCN(CCCc3c(-c4ccc(F)cc4)[nH]c4ccccc34)CC2)c1` [Example 717] it is 1.3 nM.
As to `Cc1ccc2[nH]c(-c3ccc(F)cc3)c(CCCN3CCC(c4cccc(NC(=O)C(C)C)c4)CC3)c2c1` [Example 718], the Ki was 3.4 nM.
The same measure for `Cc1cccc2c(CCCN3CCC(c4cccc(NC(=O)C(C)C)c4)CC3)c(-c3ccc(Cl)cc3)[nH]c12` [Example 719]: 14.9 nM; for `Cc1ccc2[nH]c(-c3ccc(Cl)cc3)c(CCCN3CCC(c4cccc(NC(=O)C(C)C)c4)CC3)c2c1` [Example 720]: 12.5 nM; for `CC(C)C(=O)Nc1cccc(C2CCN(CCCc3c(-c4ccc(Cl)cc4)n(-c4ccccc4)c4ccccc34)CC2)c1` [Example 721]: 75.3 nM.
For `Cc1cccc2c(CCCN3CCC(c4cccc(NC(=O)C(C)C)c4)CC3)c(-c3cccc(Cl)c3)[nH]c12` [Example 722], the Ki was found to be 6.4 nM.
Take `CC(C)C(=O)Nc1cccc(C2CCN(CCCc3c(-c4cccc(Cl)c4)[nH]c4ccc(OC(F)(F)F)cc34)CC2)c1` [Example 723]: the Ki turned out to be 9.2 nM.
As for `CC(C)C(=O)Nc1cccc(C2CCN(CCCc3c(-c4cccc(Cl)c4)n(C)c4ccccc34)CC2)c1` [Example 724], the Ki was found to be 5 nM.
As for `CC(C)C(=O)Nc1cccc(C2CCN(CCCc3c(-c4cccc(Cl)c4)n(-c4ccccc4)c4ccccc34)CC2)c1` [Example 725], the Ki worked out at 152 nM.
On to `COc1ccc2[nH]c(-c3cccc(Cl)c3)c(CCCN3CCC(c4cccc(NC(=O)C(C)C)c4)CC3)c2c1` [Example 726], for which the Ki was 5 nM.
The same measure for `Cc1ccc2[nH]c(-c3cccc(Cl)c3)c(CCCN3CCC(c4cccc(NC(=O)C(C)C)c4)CC3)c2c1` [Example 727]: 3.4 nM.
On to `CC(C)C(=O)Nc1cccc(C2CCN(CCCc3c(-c4cccc(Cl)c4)[nH]c4c3ccc3ccccc34)CC2)c1` [Example 728], for which the Ki was found to be 16.3 nM.
The figure for `CC(C)C(=O)Nc1cccc(C2CCN(CCCc3c(-c4cccc(Cl)c4)[nH]c4ccccc34)CC2)c1` [Example 729] is 1.7 nM; for `CC(C)C(=O)Nc1cccc(C2CCN(CCCc3c(-c4ccccc4Cl)[nH]c4ccccc34)CC2)c1` [Example 730] it is 0.9 nM.
On to `CC(C)C(=O)Nc1cccc(C2CCN(CCCc3c(-c4ccccc4Cl)[nH]c4ccc(OC(F)(F)F)cc34)CC2)c1` [Example 731], for which the Ki worked out at 9.9 nM.
The same measure for `CC(C)C(=O)Nc1cccc(C2CCN(CCCc3c(-c4ccccc4Cl)[nH]c4c3ccc3ccccc34)CC2)c1` [Example 732]: 5.8 nM.
The figure for `Cc1cccc2c(CCCN3CCC(c4cccc(NC(=O)C(C)C)c4)CC3)c(-c3ccccc3Cl)[nH]c12` [Example 733] is 10 nM; for `CC(C)C(=O)Nc1cccc(C2CCN(CCCc3c(-c4ccccc4Cl)n(-c4ccccc4)c4ccccc34)CC2)c1` [Example 734] it is 28.6 nM; for `CC(C)C(=O)Nc1cccc(C2CCN(CCCc3c(-c4ccccc4Cl)n(C)c4ccccc34)CC2)c1` [Example 735] it is 1.1 nM.
The figure for `Cc1ccc2[nH]c(-c3ccccc3Cl)c(CCCN3CCC(c4cccc(NC(=O)C(C)C)c4)CC3)c2c1` [Example 736] is 5.7 nM; for `CC(C)C(=O)Nc1cccc(C2CCN(CCCc3c(-c4cccc(I)c4)[nH]c4ccccc34)CC2)c1` [Example 737] it is 1 nM.
With `CC(C)C(=O)Nc1cccc(C2CCN(CCCc3c(-c4cccc(I)c4)n(C)c4ccccc34)CC2)c1` [Example 738], the Ki turned out to be 10.2 nM.
With `CC(C)C(=O)Nc1cccc(C2CCN(CCCc3c(-c4cccc(I)c4)n(-c4ccccc4)c4ccccc34)CC2)c1` [Example 739], the Ki was found to be 214 nM.
The figure for `CC(C)C(=O)Nc1cccc(C2CCN(CCCc3c(-c4cccc(I)c4)[nH]c4c3ccc3ccccc34)CC2)c1` [Example 740] is 12.2 nM.
Take `CC(C)C(=O)Nc1cccc(C2CCN(CCCc3c(-c4cccc(I)c4)[nH]c4ccc(OC(F)(F)F)cc34)CC2)c1` [Example 741]: the Ki is 2.8 nM.
The same measure for `Cc1ccc2[nH]c(-c3cccc(I)c3)c(CCCN3CCC(c4cccc(NC(=O)C(C)C)c4)CC3)c2c1` [Example 742]: 1.4 nM; for `Cc1cccc2c(CCCN3CCC(c4cccc(NC(=O)C(C)C)c4)CC3)c(-c3cccc(I)c3)[nH]c12` [Example 743]: 4.1 nM; for `CC(C)C(=O)Nc1cccc(C2CCN(CCCc3c(-c4ccc(I)cc4)[nH]c4ccc(OC(F)(F)F)cc34)CC2)c1` [Example 744]: 47.1 nM.
The figure for `Cc1ccc2[nH]c(-c3ccc(I)cc3)c(CCCN3CCC(c4cccc(NC(=O)C(C)C)c4)CC3)c2c1` [Example 745] is 15.8 nM.

By Ki is commonly meant the dissociation constant of the complex between target and ligand, obtained from inhibition or displacement.
